Seven compounds from PubChem BioAssay (NCI) can be followed below.

Common to all, as to assay: NCI tumour cell line growth inhibition, 48 h
The subject of assay [1] is HOP-62 NSCLC.
Assay [2] has as its system MDA-N.
Assay [3] relates to NCI-H522 lung.
The test system of assay [4] is SK-OV-3 ovarian.
The test system of assay [5] is HS 578T breast.
Assay [6] has as its system ACHN renal.
Assay [7] has as its system K-562 leukemia.
In assay [8] the test system is HOP-92 NSCLC.
In assay [9] the test system is SF-295 CNS.
Assay [10] concerns PC-3 prostate.
Assay [11] deals with SK-MEL-5 melanoma.
The test system of assay [12] is T-47D breast.
The subject of assay [13] is RPMI-8226 leukemia.
In assay [14] the test system is IGROV1 ovarian.
In assay [15] the test system is CCRF-CEM leukemia.
The test system of assay [16] is SF-539 CNS.
The test system of assay [17] is SR leukemia.
The test system of assay [18] is MDA-MB-231 breast.
The subject of assay [19] is CAKI-1 renal.
The test system of assay [20] is UO-31 renal.

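Exposure lasted 48 hours, with cells grown in 96-well plates and compounds tested at five concentrations. The concentration for full growth arrest is given as TGI.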

As for `N=C(N)C1CN(CCCCCCCCCCN2CC(C(=N)N)C(=O)NC2=O)C(=O)NC1=O` (configuration not stated), the TGI in assay [1], in [2], in [3], in assay [4], in assay [5] and in assay [6] was over 10 µM throughout. Besides, the TGI in assay [7], in assay [8], in assay [9], in [10], in assay [11] and in assay [12] was over 10 µM in each case. In addition, the TGI in assay [13], in [14], in assay [15], in assay [16], in assay [17] and in assay [18] was over 10 µM in each case. The compound further yielded a TGI in [19] of over 10 µM.

Take `CC1OC(OC2C(O)COC(OC3C(C)OC(OC4C(OC(=O)[C@]56CCC(C)(C)C[C@@H]5C5=CCC7[C@@]8(C)C[C@H](O)[C@H](OC9OC(CO)C(O)C(OC%10OC(CO)C(O)C(O)C%10O)C9O)[C@@](C)(CO)[C@@H]8CC[C@@]7(C)[C@]5(C)CC6)OCC(O)C4O)C(O)C3OC3OCC(O)(CO)C3O)C2O)C(O)C(O)C1O` (some centres not stated): the TGI was determined as 20.7 µM in [1]; 19.2 µM in [2]; 10.3 µM in assay [20]; 17.4 µM in assay [3]; 18 µM in assay [4]; 22.4 µM in [5]. The TGI was found to be 19.7 µM in assay [6]; 50 µM in assay [7]; 19.7 µM in [8]; 18.6 µM in [9]; 13.7 µM in assay [10]; 15.8 µM in [11]. The TGI came to 25 µM in assay [12]; 50 µM in assay [13]; 15.4 µM in assay [15]; 17.5 µM in [16]; 16 µM in assay [17]; 16.7 µM in assay [18]. Further, in assay [19], the TGI worked out at 12.4 µM.

As to `CC12O[C@]3([C@H](C(=O)N4CCOC43C)[C@H]1Cl)[C@H]1O[C@H]12` (some centres not stated), the TGI in assay [1], in assay [2], in [20], in [3], in assay [4] and in assay [5] was over 100 µM in each case. In addition, the TGI in [6], in assay [7], in assay [8], in assay [9], in assay [10] and in assay [11] was over 100 µM each time. Also, the TGI in assay [12], in [13], in assay [14], in assay [16], in assay [17] and in assay [18] was over 100 µM in each case. In addition, in [19], the TGI is over 100 µM.

For `CC(CC[C@@H](O)C(C)(C)O)C1[C@@H](O)CC2(C)C3CC(O)C4C(C)(C)[C@@H](OC5OC(CO)C(O)C(O)C5O)CC[C@@]45C[C@@]35CC[C@]12C` (some centres not stated), the TGI in assay [1], in assay [2], in [3], in assay [4], in [5] and in [6] was over 10 µM each time. For the same compound, the TGI in assay [7], in assay [8], in [9], in assay [10], in [11] and in [12] was over 10 µM throughout. The TGI in assay [13], in assay [14], in assay [15], in assay [16], in assay [17] and in [18] was over 10 µM throughout. In assay [19], this compound yielded a TGI of over 10 µM.

For `O=c1c2ccccc2nc(-c2cc3c(cc2Cl)Sc2nccn2S3(=O)=O)n1-c1ccccc1`, the TGI in assay [1] is 35.7 µM; in assay [2], 33.8 µM; in [20], 31.7 µM; in assay [3], over 100 µM; in [4] it was over 100 µM; in assay [5], 42.7 µM. For the same compound, the TGI in assay [6] was over 100 µM; in assay [7] it was over 100 µM; in [8], 58.5 µM; in assay [9] it was 52.9 µM; in assay [10], 30.8 µM; in [11] it was over 100 µM. Also, the TGI is 23.8 µM in [12]; 48.5 µM in assay [13]; over 100 µM in [14]; 40.5 µM in [16]; over 100 µM in [17]; 38.2 µM in assay [18]. For the same compound, the TGI in assay [19] is over 100 µM.

`COC(=O)C1=C(C)C(=O)[C@]23C(CCCC[C@H]12)C(=O)[C@H](C(=O)OC)C3C` (some centres not stated): the TGI in [1], in assay [2], in assay [20], in assay [3], in assay [4] and in [5] was over 100 µM in each case. The TGI in assay [6], in [7], in [8], in assay [9], in assay [10] and in assay [12] was over 100 µM each time. Further, the TGI in [14], in assay [15], in assay [16], in assay [17], in assay [18] and in [19] was over 100 µM throughout.

For `CCN1CCC(O)(c2ccc(Oc3ccccc3)cc2)C(C(=O)c2ccc(Oc3ccccc3)cc2)C1` (configuration not stated), the TGI was 25.3 µM in assay [1]; 26.7 µM in [2]; 21.8 µM in assay [20]; 43.9 µM in assay [3]; 78.1 µM in [5]; 29.8 µM in assay [6]. Further, the TGI in [7] is over 100 µM; in assay [8], 22.3 µM; in assay [9], 27.5 µM; in assay [10], 27.1 µM; in [11] it was 25.7 µM; in [12], 28.4 µM. Besides, the TGI in [13] came to 5.63 µM; in assay [14], 33 µM; in [15], 25.5 µM; in [16], 23.4 µM; in [17], 24.8 µM; in assay [18] it was 30.2 µM. Also, the TGI in [19] amounted to 31.2 µM.
